Data taken from US20190055576A1, “USE OF HERBICIDE-TOLERANT PROTEIN” (BEIJING DABEINONG TECHNOLOGY GROUP CO., LTD., priority 2016, published 2019).

System: transgenic soybean plants (Gm cytoplasmic/chloroplastic ALT-1-01, ALT-2-01, ALT-3-01)
Experiment: Sulfometuron-methyl tolerance of transgenic soybean plants, damage degree by leaf curl and growth point damage
Type: in vivo
Conditions: 120 g ai/ha; for Average damage % 3DAT / Average damage % 7DAT / Average damage % 14DAT / Average damage % 21DAT: 4-fold field concentration; for Average damage % 3DAT: 3 days after spraying; for Average damage % 7DAT: 7 days after spraying; for Average damage % 14DAT: 14 days after spraying; for Average damage % 21DAT: 21 days after spraying
Excerpt: The herbicide tolerance effects of Gm cytoplasmic ALT-1-01 soybean plants, Gm chloroplastic ALT-1-01 soybean plants, Gm cytoplasmic ALT-2-01 soybean plants, Gm chloroplastic ALT-2-01 soybean plants, Gm cytoplasmic ALT-3-01 soybean plants, Gm chloroplastic ALT-3-01 soybean plants and wild-type soybean plants on Sulfometuron-methyl were detected (at seedling stage), respectively.
Gm cytoplasmic ALT-1-01 soybean plants, Gm chloroplastic ALT-1-01 soybean plants, Gm cytoplasmic ALT-2-01 soybean plants, Gm chloroplastic ALT-2-01 soybean plants, Gm cytoplasmic ALT-3-01 soybean plants, Gm chloroplastic ALT-3-01 soybean plants and wild-type soybean plants were respectively taken and sprayed with Sulfometuron-methyl (120 g ai/ha, 4-fold field concentration) and a blank solvent (water). The damage degree caused by the herbicide was measured for each plant according to the leaf curl degree and the growth point damage degree 3 days after spraying (3 DAT), 7 days after spraying (7 DAT), 14 days after spraying (14 DAT) and 21 days after spraying (21 DAT), respectively: considering conditions of leaves being flat as the untreated plants and growth points being intact as having a damage degree of 0%; considering conditions of veins being locally browned, new leaves being malformed and plant growth being slow as having a damage degree of 50%; and considering conditions of veins being purple to whole plant being dead and growth points being browned and dry as having a damage degree of 100%. There were 2 strains in Gm cytoplasmic ALT-1-01 soybean plants in total (S1 and S2), 2 strains in Gm chloroplastic ALT-1-01 soybean plants in total (S3 and S4), 2 strains in Gm cytoplasmic ALT-2-01 soybean plants in total (S5 and S6), 2 strains in Gm chloroplastic ALT-2-01 soybean plants in total (S7 and S8), 2 strains in Gm cytoplasmic ALT-3-01 soybean plants in total (S9 and S10), 2 strains in Gm chloroplastic ALT-3-01 soybean plants in total (S11 and S12), and 1 strain in wild-type soybean plants (CK1) in total; and 10-15 plants were selected from each strain and tested.

[1] = strain S1 (Gm cytoplasmic ALT-1-01 soybean)
[2] = strain S2 (Gm cytoplasmic ALT-1-01 soybean)
[3] = strain S3 (Gm chloroplastic ALT-1-01 soybean)
[4] = strain S4 (Gm chloroplastic ALT-1-01 soybean)
[5] = strain S5 (Gm cytoplasmic ALT-2-01 soybean)
[6] = strain S6 (Gm cytoplasmic ALT-2-01 soybean)
[7] = strain S7 (Gm chloroplastic ALT-2-01 soybean)
[8] = strain S8 (Gm chloroplastic ALT-2-01 soybean)
[9] = strain S9 (Gm cytoplasmic ALT-3-01 soybean)
[10] = strain S10 (Gm cytoplasmic ALT-3-01 soybean)
[11] = strain S11 (Gm chloroplastic ALT-3-01 soybean)
[12] = strain S12 (Gm chloroplastic ALT-3-01 soybean)

COC(=O)c1ccccc1S(=O)(=O)NC(=O)Nc1nc(C)cc(C)n1 [Sulfometuron-methyl, 2-(4,6-dimethylpyrimidine-2-amino-formamido-sulfonyl) methyl benzoate]
Average damage % 3DAT [1]: 6% | Average damage % 7DAT [1]: 0% | Average damage % 14DAT [1]: 0% | Average damage % 21DAT [1]: 0% | Average damage % 3DAT [2]: 7% | Average damage % 7DAT [2]: 0% | Average damage % 14DAT [2]: 0% | Average damage % 21DAT [2]: 0% | Average damage % 3DAT [3]: 0% | Average damage % 7DAT [3]: 0% | Average damage % 14DAT [3]: 0% | Average damage % 21DAT [3]: 0% | Average damage % 3DAT [4]: 0% | Average damage % 7DAT [4]: 0% | Average damage % 14DAT [4]: 0% | Average damage % 21DAT [4]: 0% | Average damage % 3DAT [5]: 6% | Average damage % 7DAT [5]: 0% | Average damage % 14DAT [5]: 0% | Average damage % 21DAT [5]: 0% | Average damage % 3DAT [6]: 5% | Average damage % 7DAT [6]: 0% | Average damage % 14DAT [6]: 0% | Average damage % 21DAT [6]: 0% | Average damage % 3DAT [7]: 0% | Average damage % 7DAT [7]: 0% | Average damage % 14DAT [7]: 0% | Average damage % 21DAT [7]: 0% | Average damage % 3DAT [8]: 0% | Average damage % 7DAT [8]: 0% | Average damage % 14DAT [8]: 0% | Average damage % 21DAT [8]: 0% | Average damage % 3DAT [9]: 8% | Average damage % 7DAT [9]: 0% | Average damage % 14DAT [9]: 0% | Average damage % 21DAT [9]: 0% | Average damage % 3DAT [10]: 7% | Average damage % 7DAT [10]: 0% | Average damage % 14DAT [10]: 0% | Average damage % 21DAT [10]: 0% | Average damage % 3DAT [11]: 0% | Average damage % 7DAT [11]: 0% | Average damage % 14DAT [11]: 0% | Average damage % 21DAT [11]: 0% | Average damage % 3DAT [12]: 0% | Average damage % 7DAT [12]: 0% | Average damage % 14DAT [12]: 0% | Average damage % 21DAT [12]: 0% | herbicide tolerance conferred by the thifensulfuron hydrolase (ALT-1, ALT-2 and ALT-3) (transgenic soybean plants): conferred a high level of Sulfometuron-methyl herbicide tolerance
